Results: US20250026724A1, “(1,4,5-TRISUBSTITUTED 1H-PYRAZOL-3-YL)OXY-2-ALKYLTHIOALKYL ACIDS AND -ALKYL ACID DERIVATIVES, SALTS THEREOF AND USE THEREOF AS ACTIVE HERBICIDAL INGREDIENTS” (BAYER AKTIENGESELLSCHAFT, priority 2021, published 2025)

Columns and labels:
Assay in all cases: Post-emergence herbicidal action, greenhouse pot trial
Assay type in all cases: in vivo
Avena fatua (AVEFA) = conditions: 320 g/ha, visual rating after about 3 weeks; for pest or weed control at 320 g/ha: Avena fatua, 504 h, read-out: Post-emergence effect at 320 g/ha against AVEFA in %
Protocol: (§1) Seeds of monocotyledonous and dicotyledonous weeds and crop plants are placed in sandy loam in plastic or organic planting pots, covered with soil and cultivated in a greenhouse under controlled growth conditions. 2 to 3 weeks after sowing, the trial plants are treated at the one-leaf stage. The compounds of the invention, formulated in the form of wettable powders (WP) or as emulsion concentrates (EC), are then sprayed onto the green parts of the plants as aqueous suspension or emulsion with addition of 0.5% additive at a water application rate equivalent to 600 l/ha. After about 3 weeks of keeping the trial plants in the greenhouse under optimum growth conditions, the effect of the preparations is rated visually in comparison to untreated controls. For example, 100% activity=the plants have died, 0% activity=like control plants.
(§2) Tables B1 to B14 below show the effects of selected compounds of the general formula (I) according to Table 1 on various harmful plants and at an application rate corresponding to 320 g/ha or lower, which were obtained by the trial procedure specified above. The appendices “a”, “b” and “c” give differentiation by dosage used with otherwise the same harmful plants tested.
(§3) As shown by results from Tables B1 to B19, inventive compounds of the general formula (I) in the case of post-emergence treatment have good herbicidal efficacy against harmful plants, for example Abutilon theophrasti (ABUTH), Alopecurus myosuroides (ALOMY), Amaranthus retroflexus (AMARE), Avena fatua (AVEFA), Digitaria sanguinalis (DIGSA), Echinochloa crus-galli (ECHCG), Bassia scoparia (KCHSC), Lolium rigidum (LOLRI), Matricaria inodora (MATIN), Pharbitis purpurea (PHBPU), Polygonum convolvulus (POLCO), Setaria viridis (SETVI), Veronica persica (VERPE) and Viola tricolor (VIOTR) at an application rate of 320 g of active substance or less per hectare, and good crop plant compatibility in the case of organisms such as Oryza sativa (ORYSA), Zea mays (ZEAMX), Brassica napus (BRSNW), Glycine max (GLXMA) and Triticum aestivum (TRZAS) at an application rate of 320 g or less per hectare.

Bassia scoparia (KCHSC) = conditions: Bassia scoparia, 504 h, read-out: Post-emergence effect against KCHSC
Protocol: as §1, §2, §3

[1] = test system: Abutilon theophrasti (ABUTH); conditions: visual rating after about 3 weeks; for pest or weed control at 320 g/ha: read-out: Post-emergence effect at 320 g/ha against ABUTH in %
Protocol: as §1, §2, §3

[2] = test system: Digitaria sanguinalis (DIGSA); conditions: 320 g/ha, visual rating after about 3 weeks; for pest or weed control at 320 g/ha: Digitaria sanguinalis, 504 h, read-out: Post-emergence effect at 320 g/ha against DIGSA in %
Protocol: as §1, §2, §3

[3] = test system: Amaranthus retroflexus (AMARE); conditions: visual rating after about 3 weeks; for pest or weed control at 320 g/ha: read-out: Post-emergence effect at 320 g/ha against AMARE in %
Protocol: as §1, §2, §3

[4] = test system: Matricaria inodora (MATIN); conditions: 320 g/ha, visual rating after about 3 weeks; for pest or weed control at 320 g/ha: Tripleurospermum inodorum, 504 h, read-out: Post-emergence effect at 320 g/ha against MATIN in %
Protocol: as §1, §2, §3

Setaria viridis (SETVI) = conditions: visual rating after about 3 weeks; for pest or weed control at 320 g/ha: Setaria viridis, 504 h, read-out: Post-emergence effect at 320 g/ha against SETVI in %
Protocol: as §1, §2, §3

[5] = test system: Pharbitis purpurea (PHBPU); conditions: visual rating after about 3 weeks; for pest or weed control at 80 g/ha / pest or weed control at 320 g/ha: Ipomoea purpurea, 504 h; for pest or weed control at 80 g/ha: read-out: Post-emergence effect at 80 g/ha against PHBPU in %; for pest or weed control at 320 g/ha: read-out: Post-emergence effect at 320 g/ha against PHBPU in %
Protocol: as §1, §2, §3

[6] = test system: Echinochloa crus-galli (ECHCG); conditions: 320 g/ha, visual rating after about 3 weeks; for pest or weed control at 320 g/ha: Echinochloa crus-galli, 504 h, read-out: Post-emergence effect at 320 g/ha against ECHCG in %
Protocol: as §1, §2, §3

[7] = test system: Polygonum convolvulus (POLCO); conditions: visual rating after about 3 weeks; for pest or weed control at 320 g/ha: read-out: Post-emergence effect at 320 g/ha against POLCO in %
Protocol: as §1, §2, §3

Viola tricolor (VIOTR) = conditions: for pest or weed control at 320 g/ha / pest or weed control at 80 g/ha: Viola tricolor, 504 h, read-out: Post-emergence effect against VIOTR
Protocol: as §1, §2, §3

Lolium rigidum (LOLRI) = conditions: Lolium rigidum, 504 h, 320 g/ha, visual rating after about 3 weeks, read-out: Post-emergence effect at 320 g/ha against LOLRI in %
Protocol: as §1, §2, §3

[8] = test system: Alopecurus myosuroides (ALOMY); conditions: Alopecurus myosuroides, 504 h, 320 g/ha, visual rating after about 3 weeks, read-out: Post-emergence effect at 320 g/ha against ALOMY in %
Protocol: as §1, §2, §3

[9] = Abutilon theophrasti, 504 h, 320 g/ha
[10] = Amaranthus retroflexus, 504 h, 320 g/ha
[11] = Fallopia convolvulus, 504 h, 320 g/ha

| Structure (SMILES) | pest or weed control at 320 g/ha (Avena fatua (AVEFA)) [%] | pest or weed control at 320 g/ha (Bassia scoparia (KCHSC)) [%] | pest or weed control at 320 g/ha [1, 9] [%] | pest or weed control at 320 g/ha [2] [%] | pest or weed control at 320 g/ha [3, 10] [%] | pest or weed control at 320 g/ha [4] [%] | pest or weed control at 320 g/ha (Setaria viridis (SETVI); 320 g/ha) [%] | pest or weed control at 80 g/ha [5] [%] | pest or weed control at 320 g/ha ([5]; 320 g/ha) [%] | pest or weed control at 320 g/ha [6] [%] | pest or weed control at 320 g/ha [7, 11] [%] | pest or weed control at 320 g/ha (Viola tricolor (VIOTR); 320 g/ha) [%] | pest or weed control at 320 g/ha (Lolium rigidum (LOLRI)) [%] | pest or weed control at 80 g/ha (Viola tricolor (VIOTR); 80 g/ha) [%] | pest or weed control at 320 g/ha [8] [%] | other results |
| --- | --- | --- | --- | --- | --- | --- | --- | --- | --- | --- | --- | --- | --- | --- | --- | --- |
| CSC(Oc1nn(-c2ncccc2F)c(-c2ccc(F)nc2)c1Br)C(=O)O (single isomer, unassigned) [Example I-24] | 80 | 80 | 80 | 90 | 80 | 80 | 90 | 90 | 90 | 90 | 90 | 90 | – | – | – | pest or weed control at 80 g/ha (Bassia scoparia (KCHSC); 80 g/ha): 80% |
| COC(=O)C(Oc1nn(-c2ncccc2F)c(-c2ccc(F)nc2)c1Br)SC (single isomer, unassigned) [Example I-27] | – | 80 | – | – | – | – | – | – | – | – | – | – | – | – | – | Post-emergence effect at 320 g/ha against AVEFA in % (Avena fatua (AVEFA)): 90%; Post-emergence effect at 80 g/ha against ABUTH in % ([1]; 80 g/ha): 80%; Post-emergence effect at 320 g/ha against ABUTH in % ([1]; 320 g/ha): 90%; Post-emergence effect at 320 g/ha against DIGSA in % [2]: 90%; Post-emergence effect at 80 g/ha against AMARE in % ([3]; 80 g/ha): 80%; Post-emergence effect at 320 g/ha against AMARE in % ([3]; 320 g/ha): 80%; Post-emergence effect at 320 g/ha against MATIN in % [4]: 80%; Post-emergence effect at 320 g/ha against SETVI in % (Setaria viridis (SETVI); 320 g/ha): 90%; Post-emergence effect at 320 g/ha against PHBPU in % ([5]; 320 g/ha): 100%; Post-emergence effect at 320 g/ha against ECHCG in % [6]: 90%; Post-emergence effect at 20 g/ha against POLCO in % ([7]; 20 g/ha): 80%; Post-emergence effect at 80 g/ha against POLCO in % ([7]; 80 g/ha): 80%; Post-emergence effect at 320 g/ha against POLCO in % ([7]; 320 g/ha): 90%; Post-emergence effect against VIOTR (Viola tricolor (VIOTR); 80 g/ha): 80%; Post-emergence effect against VIOTR (Viola tricolor (VIOTR); 320 g/ha): 90% |
| CCOC(=O)C(Oc1nn(-c2ccccc2)c(-c2ccc(F)nc2)c1Br)SC (stereo not drawn) [Example I-04] | – | – | 80 | 80 | – | 90 | 90 | – | – | 80 | 90 | 90 | 90 | 80 | – | pest or weed control at 80 g/ha ([7]; Fallopia convolvulus, 504 h, 80 g/ha, read-out: Post-emergence effect at 80 g/ha against POLCO in %): 80% |
| CCOC(=O)C(Oc1nn(-c2cnccn2)c(-c2ccc(F)nc2)c1Cl)SC (stereo not drawn) [Example I-16] | – | – | – | – | – | – | – | – | 80 | 80 | 80 | – | – | – | 80 | – |
| CCOC(=O)C(Oc1nn(-c2cnccn2)c(-c2ccc(F)nc2)c1Br)SC (stereo not drawn) [Example I-17] | 80 | – | – | 80 | 80 | – | 80 | 80 | 80 | 80 | – | – | – | – | – | – |
| CCOC(=O)C(Oc1nn(-c2ncccc2F)c(-c2ccc(F)nc2)c1Cl)SC (stereo not drawn) [Example I-19] | 100 | – | 90 | 80 | 90 | 90 | 90 | 80 | 90 | 100 | 90 | 100 | 100 | 90 | – | pest or weed control at 80 g/ha ([3]; Amaranthus retroflexus, 504 h, 80 g/ha, read-out: Post-emergence effect at 80 g/ha against AMARE in %): 80% |
| CSC(Oc1nn(-c2cnccn2)c(-c2ccc(F)nc2)c1Br)C(=O)O (stereo not drawn) [Example I-36] | – | 90 | 80 | – | – | – | – | – | 90 | – | 90 | 80 | – | – | 90 | – |
| CSC(Oc1nn(-c2cnccn2)c(-c2ccc(F)nc2)c1Cl)C(=O)O (stereo not drawn) [Example I-37] | – | 90 | 80 | – | – | – | – | – | 90 | – | 90 | 80 | – | – | 90 | – |
| COC(=O)C(Oc1nn(-c2ccccc2F)c(-c2ccc(F)nc2)c1I)SC (stereo not drawn) [Example I-52] | – | – | 80 | 80 | 90 | 80 | 90 | – | – | 90 | 90 | 90 | 100 | 80 | – | Post-emergence effect at 80 g/ha against SETVI in % (Setaria viridis (SETVI); 80 g/ha): 80% |
| COC(=O)C(Oc1nn(-c2ncccc2F)c(-c2ccc(F)nc2)c1C1CC1)SC (stereo not drawn) [Example I-59] | 90 | – | 90 | – | – | – | – | 90 | 90 | 90 | – | 80 | 90 | 80 | – | pest or weed control at 80 g/ha ([1]; Abutilon theophrasti, 504 h, 80 g/ha, read-out: Post-emergence effect at 80 g/ha against ABUTH in %): 80% |
